Data reported in ChEMBL document CHEMBL1147087, “An antidepressant that extends lifespan in adult Caenorhabditis elegans” (Nature, 2007).

What was measured:
Type in all cases: functional
Caenorhabditis elegans [1] = experiment: Effect on life span of Caenorhabditis elegans at 100 uM
Caenorhabditis elegans [2] = experiment: Effect on life span of Caenorhabditis elegans at 50 uM
Caenorhabditis elegans [3] = experiment: Effect on life span of Caenorhabditis elegans at 200 uM
Caenorhabditis elegans [4] = experiment: Effect on life span of Caenorhabditis elegans at 10 uM
Caenorhabditis elegans [5] = experiment: Effect on life span of Caenorhabditis elegans mod1 mutant at 10 uM
Caenorhabditis elegans [6] = experiment: Effect on life span of Caenorhabditis elegans ser7 mutant at 10 uM
Caenorhabditis elegans [7] = experiment: Effect on life span of Caenorhabditis elegans clk1 mutant at 10 uM
Caenorhabditis elegans [8] = experiment: Effect on life span of Caenorhabditis elegans tph1 mutant at 10 uM
Caenorhabditis elegans [9] = experiment: Effect on life span of Caenorhabditis elegans eat2 mutant at 10 uM
Caenorhabditis elegans [10] = experiment: Effect on life span of Caenorhabditis elegans N2 treated on day 5 at 10 uM
Caenorhabditis elegans [11] = experiment: Effect on life span of Caenorhabditis elegans ser3 mutant at 250 uM
Caenorhabditis elegans [12] = experiment: Effect on life span of Caenorhabditis elegans ser1 mutant at 10 uM
Caenorhabditis elegans [13] = experiment: Effect on life span of Caenorhabditis elegans ser2 mutant at 10 uM
Caenorhabditis elegans [14] = experiment: Effect on life span of Caenorhabditis elegans ser4 mutant at 10 uM
Caenorhabditis elegans [15] = experiment: Effect on life span of Caenorhabditis elegans N2 at 10 uM
Caenorhabditis elegans [16] = experiment: Effect on life span of Caenorhabditis elegans ser3 mutant at 10 uM
Caenorhabditis elegans [17] = experiment: Effect on life span of Caenorhabditis elegans daf16 mutant at 10 uM
Caenorhabditis elegans [18] = experiment: Effect on life span of Caenorhabditis elegans mod5 mutant at 10 uM
Caenorhabditis elegans [19] = experiment: Effect on life span of Caenorhabditis elegans daf2 mutant at 10 uM
Caenorhabditis elegans [20] = experiment: Increase in life span of Caenorhabditis elegans
Caenorhabditis elegans [21] = experiment: Effect on life span of Caenorhabditis elegans at 250 uM
Caenorhabditis elegans [22] = experiment: Effect on life span of Caenorhabditis elegans at 1000 uM
Caenorhabditis elegans [23] = experiment: Effect on life span of Caenorhabditis elegans at 3000 uM
Caenorhabditis elegans [24] = experiment: Effect on life span of Caenorhabditis elegans N2 treated on day 1 at 50 uM
Caenorhabditis elegans [25] = experiment: Effect on life span of Caenorhabditis elegans clk1([…]) mutant at 50 uM
Caenorhabditis elegans [26] = experiment: Effect on life span of Caenorhabditis elegans N2 at 2 uM
Caenorhabditis elegans [27] = experiment: Effect on life span of Caenorhabditis elegans ser4 mutant at 50 uM
Caenorhabditis elegans [28] = experiment: Effect on life span of Caenorhabditis elegans tph1 mutant at 250 uM
Caenorhabditis elegans [29] = experiment: Effect on life span of Caenorhabditis elegans N2 at 250 uM
Caenorhabditis elegans [30] = experiment: Effect on life span of Caenorhabditis elegans tph1 mutant at 50 uM
Caenorhabditis elegans [31] = experiment: Effect on life span of Caenorhabditis elegans ser3(ok2007) mutant at 50 uM
Caenorhabditis elegans [32] = experiment: Effect on life span of Caenorhabditis elegans ser2 mutant at 50 uM
Caenorhabditis elegans [33] = experiment: Effect on life span of Caenorhabditis elegans ser1 mutant at 50 uM
Caenorhabditis elegans [34] = experiment: Effect on life span of Caenorhabditis elegans mod1 mutant at 50 uM
Caenorhabditis elegans [35] = experiment: Effect on life span of Caenorhabditis elegans mod5 mutant at 50 uM
Caenorhabditis elegans [36] = experiment: Effect on life span of Caenorhabditis elegans N2 from L1 stage at 10 uM
Caenorhabditis elegans [37] = experiment: Effect on life span of Caenorhabditis elegans ser3 mutant at 50 uM
Caenorhabditis elegans [38] = experiment: Effect on life span of Caenorhabditis elegans daf16(mu86) mutant at 50 uM
Caenorhabditis elegans [39] = experiment: (§1) Effect on life span of Caenorhabditis elegans N2 treated on day 5 at 50 uM
Caenorhabditis elegans [40] = experiment: Effect on life span of Caenorhabditis elegans daf2(e1370) mutant at 50 uM
Caenorhabditis elegans [41] = experiment: Effect on life span of Caenorhabditis elegans mod1(ok103) mutant at 50 uM
Caenorhabditis elegans [42] = experiment: Effect on life span of Caenorhabditis elegans ser4 mutant at 2 uM
Caenorhabditis elegans [43] = experiment: Effect on life span of Caenorhabditis elegans N2 from L1 stage at 50 uM
Caenorhabditis elegans [44] = experiment: as §1; remark: listed apart in the source
Caenorhabditis elegans [45] = experiment: Effect on life span of Caenorhabditis elegans ser3 mutant at 2 uM
Caenorhabditis elegans [46] = experiment: Effect on life span of Caenorhabditis elegans ser4(ok512) mutant at 50 uM
Caenorhabditis elegans [47] = experiment: Effect on life span of Caenorhabditis elegans ser3(ad1774) mutant at 50 uM
Caenorhabditis elegans [48] = experiment: Effect on life span of Caenorhabditis elegans N2 from L1 stage at 2 uM
Caenorhabditis elegans [49] = experiment: Effect on life span of Caenorhabditis elegans ser4 mutant at 250 uM
Caenorhabditis elegans [50] = experiment: Effect on life span of Caenorhabditis elegans N2 treated on day 1 at 200 uM
Caenorhabditis elegans [51] = experiment: Effect on life span of Caenorhabditis elegans ser7 mutant at 50 uM
Caenorhabditis elegans [52] = experiment: Effect on life span of Caenorhabditis elegans eat2(ad1116) mutant at 50 uM
Caenorhabditis elegans [53] = experiment: Effect on life span of Caenorhabditis elegans daf16 mutant at 50 uM
Caenorhabditis elegans [54] = experiment: Effect on life span of Caenorhabditis elegans ser1(ok345) mutant at 50 uM
Caenorhabditis elegans [55] = experiment: Effect on life span of Caenorhabditis elegans ser7(tm1325) mutant at 50 uM
Caenorhabditis elegans [56] = experiment: Effect on life span of Caenorhabditis elegans mod5(n3314) mutant at 50 uM
Caenorhabditis elegans [57] = experiment: Effect on life span of Caenorhabditis elegans clk1 mutant at 50 uM
Caenorhabditis elegans [58] = experiment: Effect on life span of Caenorhabditis elegans daf2 mutant at 50 uM
Caenorhabditis elegans [59] = experiment: Effect on life span of Caenorhabditis elegans N2 from L1 stage at 200 uM
Caenorhabditis elegans [60] = experiment: Effect on life span of Caenorhabditis elegans eat2 mutant at 50 uM
Caenorhabditis elegans [61] = experiment: Effect on life span of diet restricted Caenorhabditis elegans N2 at 50 uM
Caenorhabditis elegans [62] = experiment: Effect on life span of Caenorhabditis elegans N2 at 50 uM
Caenorhabditis elegans [63] = experiment: Effect on life span of Caenorhabditis elegans N2 treated on day 1 at 10 uM
Caenorhabditis elegans [64] = experiment: Effect on life span of Caenorhabditis elegans tph(mg280) mutant at 50 uM
Caenorhabditis elegans [65] = experiment: Effect on life span of Caenorhabditis elegans ser2(pk1357) mutant at 50 uM
Caenorhabditis elegans [66] = experiment: Effect on life span of Caenorhabditis elegans N2 treated on day 1 at 2 uM
Caenorhabditis elegans [67] = experiment: Effect on life span of Caenorhabditis elegans N2 treated on day 1 at 100 uM
Caenorhabditis elegans [68] = experiment: Effect on life span of Caenorhabditis elegans N2 from L1 stage at 100 uM

COc1ccccc1N1CCN(CCCCN2C(=O)c3ccccc3C2=O)CC1 [NAN-190]
Activity (Caenorhabditis elegans [1]): 2% | Activity (Caenorhabditis elegans [2]): -11%

CN(C)CCCN1c2ccccc2CCc2ccccc21 [IMIPRAMINE]
Activity (Caenorhabditis elegans [3]): -2% | Activity (Caenorhabditis elegans [2]): -1% | Activity (Caenorhabditis elegans [4]): -3%

N[C@@H](Cc1ccccc1)C(=O)O [PHENYLALANINE]
Activity (Caenorhabditis elegans [3]): -2% | Activity (Caenorhabditis elegans [2]): -1%

CN1CCN2c3ncccc3Cc3ccccc3C2C1 (centres undefined) [MIRTAZAPINE]
Activity (Caenorhabditis elegans [1]): 5% | Activity (Caenorhabditis elegans [2]): 20%

CSc1ccc2c(c1)C(N1CCN(C)CC1)Cc1ccccc1S2 (centres undefined) [METITEPINE]
Activity (Caenorhabditis elegans [5]): 21% | Activity (Caenorhabditis elegans [6]): 40% | Activity (Caenorhabditis elegans [7]): 10% | Activity (Caenorhabditis elegans [8]): -2% | Activity (Caenorhabditis elegans [9]): -3% | Activity (Caenorhabditis elegans [10]): -1% | Activity (Caenorhabditis elegans [11]): -1% | Activity (Caenorhabditis elegans [12]): 38% | Activity (Caenorhabditis elegans [13]): 17% | Activity (Caenorhabditis elegans [14]): 8% | Activity (Caenorhabditis elegans [15]): 25% | Activity (Caenorhabditis elegans [16]): -9% | Activity (Caenorhabditis elegans [17]): 10% | Activity (Caenorhabditis elegans [18]): 8% | Activity (Caenorhabditis elegans [19]): 21% | Activity (Caenorhabditis elegans [4]): 25%

CN(C)Cc1c[nH]c2ccccc12 [GRAMINE]
Activity (Caenorhabditis elegans [2]): 2% | Activity (Caenorhabditis elegans [4]): 3%

O=C1CC(c2cccc([N+](=O)[O-])c2)CC2=C1C(c1ccccc1)Nc1ccccc1N2 (centres undefined)
Activity (Caenorhabditis elegans [20]): 20%

CNCCCN1c2ccccc2CCc2ccccc21 [DESIPRAMINE]
Activity (Caenorhabditis elegans [3]): 3% | Activity (Caenorhabditis elegans [2]): -2% | Activity (Caenorhabditis elegans [4]): -6%

CN[C@H]1CC[C@@H](c2ccc(Cl)c(Cl)c2)c2ccccc21 [SERTRALINE]
Activity (Caenorhabditis elegans [21]): -80% | Activity (Caenorhabditis elegans [2]): -76%

NCCc1c[nH]c2ccc(O)cc12 [SEROTONIN]
Activity (Caenorhabditis elegans [22]): -8% | Activity (Caenorhabditis elegans [23]): -6%

Clc1cccc(N2CCNCC2)c1 [CHLOROPHENYLPIPERAZINE]
Activity (Caenorhabditis elegans [2]): -26%

CN1CCN2c3ccccc3Cc3ccccc3C2C1 (centres undefined) [MIANSERIN]
Activity (Caenorhabditis elegans [24]): 31% | Activity (Caenorhabditis elegans [25]): 3% | Activity (Caenorhabditis elegans [26]): 19% | Activity (Caenorhabditis elegans [27]): 7% | Activity (Caenorhabditis elegans [28]): -1% | Activity (Caenorhabditis elegans [29]): -17% | Activity (Caenorhabditis elegans [30]): 10% | Activity (Caenorhabditis elegans [11]): -1% | Activity (Caenorhabditis elegans [31]): -2% | Activity (Caenorhabditis elegans [32]): 19% | Activity (Caenorhabditis elegans [33]): 53% | Activity (Caenorhabditis elegans [34]): 29% | Activity (Caenorhabditis elegans [35]): 14% | Activity (Caenorhabditis elegans [36]): 9% | Activity (Caenorhabditis elegans [37]): -5% | Activity (Caenorhabditis elegans [38]): 14% | Activity (Caenorhabditis elegans [39]): 6% | Activity (Caenorhabditis elegans [40]): 11% | Activity (Caenorhabditis elegans [41]): 25% | Activity (Caenorhabditis elegans [42]): 6% | Activity (Caenorhabditis elegans [43]): 10% | Activity (Caenorhabditis elegans [44]): 1% | Activity (Caenorhabditis elegans [45]): -3% | Activity (Caenorhabditis elegans [46]): 7% | Activity (Caenorhabditis elegans [47]): 3% | Activity (Caenorhabditis elegans [48]): 8% | Activity (Caenorhabditis elegans [49]): -20% | Activity (Caenorhabditis elegans [50]): -4% | Activity (Caenorhabditis elegans [51]): 50% | Activity (Caenorhabditis elegans [52]): 2% | Activity (Caenorhabditis elegans [53]): 12% | Activity (Caenorhabditis elegans [54]): 38% | Activity (Caenorhabditis elegans [55]): 60% | Activity (Caenorhabditis elegans [56]): 2% | Activity (Caenorhabditis elegans [15]): 31% | Activity (Caenorhabditis elegans [16]): -2% | Activity (Caenorhabditis elegans [57]): 10% | Activity (Caenorhabditis elegans [58]): 16% | Activity (Caenorhabditis elegans [59]): 5% | Activity (Caenorhabditis elegans [60]): -4% | Activity (Caenorhabditis elegans [61]): 4% | Activity (Caenorhabditis elegans [62]): 48% | Activity (Caenorhabditis elegans [63]): 18% | Activity (Caenorhabditis elegans [2]): 25% | Activity (Caenorhabditis elegans [64]): 0% | Activity (Caenorhabditis elegans [65]): 19% | Activity (Caenorhabditis elegans [66]): 13% | Activity (Caenorhabditis elegans [67]): 13% | Activity (Caenorhabditis elegans [68]): -4%

CNCCC(Oc1ccc(C(F)(F)F)cc1)c1ccccc1 (centres undefined) [FLUOXETINE]
Activity (Caenorhabditis elegans [1]): -11% | Activity (Caenorhabditis elegans [3]): -48% | Activity (Caenorhabditis elegans [2]): -12%

CCCN(CCC)C1CCc2cccc(O)c2C1 (centres undefined) [8-OH-DPAT]
Activity (Caenorhabditis elegans [1]): 8% | Activity (Caenorhabditis elegans [3]): -13% | Activity (Caenorhabditis elegans [2]): 3%

Fc1ccc([C@@H]2CCNC[C@H]2COc2ccc3c(c2)OCO3)cc1 [PAROXETINE]
Activity (Caenorhabditis elegans [21]): -76% | Activity (Caenorhabditis elegans [2]): -42%

c1cc2c(c(N3CCNCC3)c1)OCCO2 [ELTOPRAZINE]
Activity (Caenorhabditis elegans [1]): -8% | Activity (Caenorhabditis elegans [2]): -12%

O=C1c2ccccc2S(=O)(=O)N1CCCCN1CCN(c2ncccn2)CC1 [IPSAPIRONE]
Activity (Caenorhabditis elegans [1]): 0% | Activity (Caenorhabditis elegans [2]): 3%

COc1ccccc1N1CCN(CCCCN2C(=O)CCC2=O)CC1
Activity (Caenorhabditis elegans [1]): -4% | Activity (Caenorhabditis elegans [2]): 6%

CN1CCC(=C2c3ccccc3C=Cc3ccccc32)CC1 [CYPROHEPTADINE]
Activity (Caenorhabditis elegans [24]): 33% | Activity (Caenorhabditis elegans [1]): 17% | Activity (Caenorhabditis elegans [31]): -4% | Activity (Caenorhabditis elegans [38]): 6% | Activity (Caenorhabditis elegans [39]): 7% | Activity (Caenorhabditis elegans [46]): 16% | Activity (Caenorhabditis elegans [52]): 4% | Activity (Caenorhabditis elegans [55]): 54% | Activity (Caenorhabditis elegans [61]): 9% | Activity (Caenorhabditis elegans [2]): 19%
